# Reference: patent US8440652B2, “MST1 kinase inhibitors and methods of their use” (Lexicon Pharmaceuticals, Inc., priority 2011, dated 2013)
# Read-outs that look alike come from different tables or passages of the source.
# Biological target: T1, MST1 (Homo sapiens, UniProt Q13043)
# T1 sequence (Q13043 1-487): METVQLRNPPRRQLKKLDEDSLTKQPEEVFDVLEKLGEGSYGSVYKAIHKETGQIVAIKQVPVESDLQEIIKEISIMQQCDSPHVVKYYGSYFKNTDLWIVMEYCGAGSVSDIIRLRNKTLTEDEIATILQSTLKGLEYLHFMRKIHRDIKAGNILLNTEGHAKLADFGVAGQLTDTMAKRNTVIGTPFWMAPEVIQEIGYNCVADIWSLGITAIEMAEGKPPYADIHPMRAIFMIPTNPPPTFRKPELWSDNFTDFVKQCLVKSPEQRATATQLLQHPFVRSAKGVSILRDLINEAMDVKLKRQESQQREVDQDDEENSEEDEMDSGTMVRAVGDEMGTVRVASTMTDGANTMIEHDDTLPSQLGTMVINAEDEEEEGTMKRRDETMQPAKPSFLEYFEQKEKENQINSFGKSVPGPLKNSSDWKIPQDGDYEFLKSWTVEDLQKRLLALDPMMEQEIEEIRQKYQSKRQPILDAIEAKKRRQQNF
# Experiment: In vitro measurement of MST1 inhibition (Z′-Lyte kinase assay)
# Assay type: biochemical
# [1] = 1 μM ATP, read-out: IC50 (μM) 1 μM ATP
# [2] = 50 μM ATP, read-out: IC50 (μM) 50 μM ATP
SMILES,IC50 [1] [µM],IC50 [2] [µM]
"CC(C)(c1ccc(-c2cnc(N)c(-c3ccc4c(c3)CCNC4=O)c2)cc1)N1CCOCC1 [6-(2-amino-5-(4-(2-morpholinopropan-2-yl)phenyl)pyridin-3-yl)-3,4-dihydroisoquinolin-1(2H)-one]",< 0.05,< 0.01
"CN(Cc1ccc(-c2cnc(N)c(-c3ccc4c(c3)CCNC4=O)c2)cc1)C1CC1 [6-(2-amino-5-(4-((cyclopropyl(methyl)amino)methyl)phenyl)pyridin-3-yl)-3,4-dihydroisoquinolin-1(2H)-one]",< 0.05,< 0.01
"CCS(=O)(=O)c1ccc(-c2cnc(N)c(-c3ccc4c(c3)CCNC4=O)c2)cc1 [6-(2-amino-5-(4-(ethylsulfonyl)phenyl)pyridin-3-yl)-3,4-dihydroisoquinolin-1(2H)-one]",< 0.05,< 0.05
"Nc1ncc(-c2ccc(F)cc2)cc1-c1cc2c(cn1)C(=O)NCC2 [6-(2-amino-5-(4-fluorophenyl)pyridin-3-yl)-3,4-dihydro-2,7-naphthyridin-1(2H)-one]",< 0.05,< 0.05
"Nc1ncc(-c2ccc(F)cc2)cc1-c1ccc2c(c1)CCNC2=O [6-(2-amino-5-(4-fluorophenyl)pyridin-3-yl)-3,4-dihydroisoquinolin-1(2H)-one]",< 0.15,< 0.05
"Cc1ccc(-c2cnc(N)c(-c3ccc4c(c3)CCNC4=O)c2)s1 [6-(2-amino-5-(5-methylthiophen-2-yl)pyridin-3-yl)-3,4-dihydroisoquinolin-1(2H)-one]",< 0.05,< 0.01
"Cn1cc(-c2cnc(N)c(-c3ccc4c(c3)CCNC4=O)n2)cn1 [6-(3-amino-6-(1-methyl-1H-pyrazol-4-yl)pyrazin-2-yl)-3,4-dihydroisoquinolin-1(2H)-one]",< 0.15,< 0.05
"CNC1(c2ccc(-c3cnc(N)c(-c4ccc5c(c4)CCNC5=O)n3)cc2)CC1 [6-(3-amino-6-(4-(1-(methylamino)cyclopropyl)phenyl)pyrazin-2-yl)-3,4-dihydroisoquinolin-1(2H)-one]",< 0.01,< 0.01
"CC(Oc1ccc(-c2cnc(N)c(-c3ccc4c(c3)CCNC4=O)n2)cc1)C1CC1 (stereo not drawn) [6-(3-amino-6-(4-(1-cyclopropylethoxy)phenyl)pyrazin-2-yl)-3,4-dihydroisoquinolin-1(2H)-one]",< 0.05,< 0.01
"Nc1ncc(-c2ccc(C(=O)C(F)(F)F)cc2)nc1-c1ccc2c(c1)CCNC2=O [6-(3-amino-6-(4-(2,2,2-trifluoroacetyl)phenyl)pyrazin-2-yl)-3,4-dihydroisoquinolin-1(2H)-one]",< 0.15,< 0.05
"CC(C)(O)c1ccc(-c2cnc(N)c(-c3ccc4c(c3)CCNC4=O)n2)cc1 [6-(3-amino-6-(4-(2-hydroxypropan-2-yl)phenyl)pyrazin-2-yl)-3,4-dihydroisoquinolin-1(2H)-one]",< 0.05,< 0.01
"Nc1ncc(-c2ccc(C3(O)CCOCC3)cc2)nc1-c1ccc2c(c1)CCNC2=O [6-(3-amino-6-(4-(4-hydroxytetrahydro-2H-pyran-4-yl)phenyl)pyrazin-2-yl)-3,4-dihydroisoquinolin-1(2H)-one]",< 0.05,< 0.01
"Nc1ncc(-c2ccc(S(=O)(=O)CC3CC3)cc2)nc1-c1ccc2c(c1)CCNC2=O [6-(3-amino-6-(4-((cyclopropylmethyl)sulfonyl)phenyl)pyrazin-2-yl)-3,4-dihydroisoquinolin-1(2H)-one]",< 0.05,< 0.01
"Nc1ncc(-c2ccc(S(F)(F)(F)(F)F)cc2)nc1-c1ccc2c(c1)CCNC2=O [6-(3-amino-6-(4-(pentafluorosulfanyl)phenyl)pyrazin-2-yl)-3,4-dihydroisoquinolin-1(2H)-one]",< 0.15,< 0.05
Nc1ncc(-c2ccc(S(=O)(=O)N3CCCCC3)cc2)nc1-c1ccc2c(=O)[nH]ccc2c1 [6-(3-amino-6-(4-(piperidin-1-ylsulfonyl)phenyl)pyrazin-2-yl)isoquinolin-1(2H)-one],< 0.01,< 0.01
"CC(C)(C)c1ccc(-c2cnc(N)c(-c3ccc4c(c3)CCNC4=O)n2)cc1 [6-(3-amino-6-(4-(tert-butyl)phenyl)pyrazin-2-yl)-3,4-dihydroisoquinolin-1(2H)-one]",< 0.05,< 0.01

# Results, then the compound that gave them:
IC50 [1] [µM],IC50 [2] [µM],SMILES
< 0.01,< 0.01,"Nc1ncc(-c2ccc(F)cc2)nc1-c1cc2c(cn1)C(=O)NCC2 [6-(3-amino-6-(4-fluorophenyl)pyrazin-2-yl)-3,4-dihydro-2,7-naphthyridin-1(2H)-one]"
< 0.05,< 0.01,"CCC(=O)c1ccc(-c2cnc(N)c(-c3ccc4c(c3)CCNC4=O)n2)cc1 [6-(3-amino-6-(4-propionylphenyl)pyrazin-2-yl)-3,4-dihydroisoquinolin-1(2H)-one]"
< 0.05,< 0.01,"Nc1ncc(-c2ccc(S(=O)(=O)N3CCCC34CC4)cc2)cc1-c1ccc2c(c1)CCNC2=O [6-(5-(4-(4-azaspiro[2.4]heptan-4-ylsulfonyl)phenyl)-2-aminopyridin-3-yl)-3,4-dihydroisoquinolin-1(2H)-one]"
< 0.15,< 0.05,"COC[C@H]1C[C@@H]1N(C)S(=O)(=O)c1ccc(-c2cnc(N)c(-c3ccc4c(c3)CCNC4=O)n2)nc1 [6-(5-amino-6-(1-oxo-1,2,3,4-tetrahydroisoquinolin-6-yl)pyrazin-2-yl)-N-((1S,2S)-2-(methoxymethyl)cyclopropyl)-N-methylpyridine-3-sulfonamide]"
< 0.01,< 0.01,"CN(C1CC1)S(=O)(=O)c1ccc(-c2cnc(N)c(-c3ccc4c(c3)CCNC4=O)n2)nc1 [6-(5-amino-6-(1-oxo-1,2,3,4-tetrahydroisoquinolin-6-yl)pyrazin-2-yl)-N-cyclopropyl-N-methylpyridine-3-sulfonamide]"
< 0.01,< 0.01,"[2H]C([2H])([2H])N(C1CC1)S(=O)(=O)c1ccc(-c2cnc(N)c(-c3ccc4c(c3)CCNC4=O)n2)nc1 [6-(5-amino-6-(1-oxo-1,2,3,4-tetrahydroisoquinolin-6-yl)pyrazin-2-yl)-N-cyclopropyl-N-trideuteromethylpyridine-3-sulfonamide]"
< 0.01,< 0.01,"CCN(C)S(=O)(=O)c1cnc(-c2cnc(N)c(-c3ccc4c(c3)CCNC4=O)n2)cc1C [6-(5-amino-6-(1-oxo-1,2,3,4-tetrahydroisoquinolin-6-yl)pyrazin-2-yl)-N-ethyl-N,4-dimethylpyridine-3-sulfonamide]"
< 0.01,< 0.01,"CCN(C)S(=O)(=O)c1ccc(-c2cnc(N)c(-c3ccc4c(c3)CCNC4=O)n2)nc1 [6-(5-amino-6-(1-oxo-1,2,3,4-tetrahydroisoquinolin-6-yl)pyrazin-2-yl)-N-ethyl-N-methylpyridine-3-sulfonamide]"
< 0.15,< 0.05,"CN(C)S(=O)(=O)N1CC=C(c2cnc(N)c(-c3ccc4c(c3)CCNC4=O)c2)CC1 [6-amino-N,N-dimethyl-5-(1-oxo-1,2,3,4-tetrahydroisoquinolin-6-yl)-5′,6′-dihydro-[3,4′-bipyridine]-1′(2′H)-sulfonamide]"
< 0.15,< 0.01,"Nc1ncc(-c2ccc(F)cc2)nc1-c1ccc2c(c1)C1(CC1)CNC2=O [6′-(3-amino-6-(4-fluorophenyl)pyrazin-2-yl)-2′,3′-dihydro-1′H-spiro[cyclopropane-1,4′-isoquinolin]-1′-one]"
< 0.01,< 0.01,"Cc1cc(-c2cnc(N)c(-c3ccc4c(c3)CCNC4=O)c2)ncc1S(=O)(=O)NC1CC1 [6′-amino-N-cyclopropyl-4-methyl-5′-(1-oxo-1,2,3,4-tetrahydroisoquinolin-6-yl)-[2,3′-bipyridine]-5-sulfonamide]"
< 0.01,< 0.01,"Nc1ncc(-c2ccc(S(=O)(=O)NC3CC3)cn2)cc1-c1ccc2c(c1)CCNC2=O [6′-amino-N-cyclopropyl-5′-(1-oxo-1,2,3,4-tetrahydroisoquinolin-6-yl)-[2,3′-bipyridine]-5-sulfonamide]"
< 0.01,< 0.01,"CN(C1CC1)S(=O)(=O)c1ccc(-c2cnc(N)c(-c3ccc4c(c3)CCNC4=O)c2)nc1 [6′-amino-N-cyclopropyl-N-methyl-5′-(1-oxo-1,2,3,4-tetrahydroisoquinolin-6-yl)-[2,3′-bipyridine]-5-sulfonamide]"
< 0.01,< 0.01,"CN(C1CC1)S(=O)(=O)c1ccc(-c2cnc(N)c(-c3ccc4c(c3)CCNC4=O)c2)cn1 [6′-amino-N-cyclopropyl-N-methyl-5′-(1-oxo-1,2,3,4-tetrahydroisoquinolin-6-yl)-[3,3′-bipyridine]-6-sulfonamide]"
< 0.01,< 0.01,"CCN(C)S(=O)(=O)c1ccc(-c2cnc(N)c(-c3ccc4c(c3)CCNC4=O)c2)nc1 [6′-amino-N-ethyl-N-methyl-5′-(1-oxo-1,2,3,4-tetrahydroisoquinolin-6-yl)-[2,3′-bipyridine]-5-sulfonamide]"
< 0.01,< 0.01,"CCCN(C)S(=O)(=O)c1ccc(-c2cnc(N)c(-c3ccc4c(c3)CCNC4=O)c2)nc1 [6′-amino-N-methyl-5′-(1-oxo-1,2,3,4-tetrahydroisoquinolin-6-yl)-N-propyl-[2,3′-bipyridine]-5-sulfonamide]"
< 0.05,< 0.01,"N#C[C@]1(c2ccc(-c3cnc(N)c(-c4ccc5c(c4)CCNC5=O)n3)cc2)[C@@H]2COC[C@@H]21 [(1R,5S,6s)-6-(4-(5-amino-6-(1-oxo-1,2,3,4-tetrahydroisoquinolin-6-yl)pyrazin-2-yl)phenyl)-3-oxabicyclo[3.1.0]hexane-6-carbonitrile]"
